# Results taken from patent US7253177B2, “Synthesis and antimalarial activity of pyrrolo[3,2-f]quinazoline-1,3-diamine derivatives” (United States of America as Represented by the Secretary of …, priority 2004, dated 2007).
# Experiments:
# [1] = tested on: P. berghei ANKA; assay: In vivo antimalarial study against P. berghei in rats; design: species or system Plasmodium berghei
# [2] = tested on: Plasmodium yoelii (17x) sporozoites; assay: Sporozoite induced test in mice; type: in vivo; settings: P. yoelii; for Number of Mice Cured: oral
# Protocol: B. Antimalarial Activities: (a). In Vitro Antimalarial Studies. The in vitro assays were conducted by using a modification of the semiautomated microdilution technique of Desjardins et al and Chulay et al.. Four P. falciparum malaria parasite clones, from CDC Indochina III (W-2), CDC Sierra Leone I (D-6), Southeast Asia Isolates (TM91C235) and RCS (Isolates from Brazil) were utilized in susceptibility testing. They were derived by direct visualization and micromanipulation from patient isolates. The W-2 clone is susceptible to mefloquine but resistant to chloroquine, sulfadoxine, pyrimethamine, and quinine, whereas the D-6 clone is naturally resistant to mefloquine but susceptible to chloroquine, sulfadoxine, pyrimethamine and quinine. Test compounds were initially dissolved in DMSO and diluted 400 fold in RPMI 1640 culture medium supplemented with 25 mM Hepes, 32 mM NaHCO3 and 10% Albumax I (Gibco BRL, Grand Island, N.Y.). These solutions were subsequently serially diluted two-fold with a Biomek 1000 (Beckman, Fullerton, Calif.) over 11 different concentrations. The parasites were exposed to serial dilutions of each compound for 48 hrs and incubated at 37° C. with 5% O2, 5% CO2 and 90% N2 prior to the addition of [^3H]hypoxanthine. After a further incubation of 18 hrs, parasite DNA was harvested from each microtiter well using Packard Filtermate 196 Harvester (Meriden, Conn.) onto glass filters. Uptake of [^3H]hypoxanthine was measured with a Packard Topcount Scintillation. Concentration-response data were analyzed by a non-linear regression logistic dose response model and the IC50 values (50% inhibitory concentrations) for each compound were calculated. (Table 3). (b). In Vivo Antimalarial Studies against P. berghei in mice: The in vivo efficacy of the artelinic acid analogs were determined in a modified Thompson test. This test measures the survivability of mice and parasitemia clearance following administration of drug on days 3-5 post infection. In brief, 5×10^6 P. berghei-infected erythrocytes (KBG-173 strain) were inoculated intraperitoneally to female mice that weighed 24-30 g. By day three post-infection, parasitemia ranged from 1.0-3.7%. Each drug, dissolved in 5% sodium bicarbonate, was administered PO twice daily from day 3-5 post-infection. Total doses for each drug ranged from 1.5-384 mg/kg with 8 mice included in each dosage group. The percent suppression of parasitemia in the treated mice compared to the untreated controls was determined for each test compound; the SD-50 (fifty percent suppression dose) and SD-90 were determined from a non-linear regression logistic dose response fit at day 6 parasitemia data. Survival of mice to day 60 post-infection was considered a cure (C). Compounds were considered active (A) when the survival time of the treated mice was greater than twice the control mice, i.e., 12-14 day (Table 4-5). (c). Sporozoite Induced Test Each compound is ground with a mortar & pestle and suspended in 0.5% hydroxyethylcellulose—0.1% Tween 80 for compounds to be administered PO and those given SC are suspended in peanut oil. Each compound is prepared at 3 different dose levels as requested by WRAIR. Compounds are administered either PO or SC to mice once 4 hr before inoculation of sporozoites. Four-week-old male CD-1 mice, purchased from Charles River and weighing 16-17 g, are placed 5 per cage and allowed to acclimate for 4 days before being treated and then inoculated with sporozoites. They are fed food and water ad-lib and maintained at 76° F. with 12 hr light and 12 hr darkness. The cages and water bottles are changed biweekly. The mice are weighed on Days 0, 3 and 6 then biweekly when blood films are taken. Plasmodium yoelii (17×) is used to infect mice that will be used to infect the mosquitoes. […] Whole body weights are taken on Day 0 and Day 6 then twice a week for 31 days. A blood film is taken on Day 5 and then twice a week for 31 days. Mice loosing >20% of their body weight will be sacrificed. […]
compound,measurement,setting,value
"CC(=O)N(C(C)=O)c1nc(N(C(C)=O)C(C)=O)c2c(ccc3c2ccn3Cc2ccccc2C(F)(F)F)n1 [Compound 3e, 1,3-Bis(diacetylamino)-7-(2-trifluoromethyl)benzyl-7H-pyrrolo[3,2-f]quinazoline]",cure against P. berghei in rats,"[1]; 5 mg/kg intragastric daily x3 (days 6, 7, 8 post-inoculation)",100%
same,cure against P. berghei in rats,[1]; 10 mg/kg intragastric daily x3,100%
same,cure against P. berghei in rats,[1]; 20 mg/kg intragastric daily x3,100%
same,mice cured,[2]; dose groups from 0.625 to 40 mg/kg,100%
same,parasitemia formation in sporozoite challenged mouse,[2]; doses from 0.65 to 40 mg/kg given orally for 3 consecutive days,completely prevented parasitemia formation
same,Number of Mice Cured,[2]; 0.15625 mg/kg,4/5
same,Number of Mice Cured,[2]; 0.3125 mg/kg,4/5
same,Number of Mice Cured,[2]; 0.625 mg/kg,5/5
same,Number of Mice Cured,[2]; 2.5 mg/kg,5/5
same,Number of Mice Cured,[2]; 10 mg/kg,5/5
same,Number of Mice Cured,[2]; 40 mg/kg,5/5
